Results: patent publication US5284852A, “Angiotensin II receptor blocking 2,3,6-substituted quinazolinones” (American Cyanamid Company, priority 1993, dated 1994)

Target: T1, Angiotensin II Receptor (Bos taurus, UniProt P25104)
T1 construct: The brownish tissue forming the adrenal cortex is scraped off and finely minced with scissors before homogenization; tissue Maxwell-Cohen (local slaughter house); host or cells: beef adrenal cortex, microsomal membranes (100,000×g pellet)
T1 sequence (P25104 1-359): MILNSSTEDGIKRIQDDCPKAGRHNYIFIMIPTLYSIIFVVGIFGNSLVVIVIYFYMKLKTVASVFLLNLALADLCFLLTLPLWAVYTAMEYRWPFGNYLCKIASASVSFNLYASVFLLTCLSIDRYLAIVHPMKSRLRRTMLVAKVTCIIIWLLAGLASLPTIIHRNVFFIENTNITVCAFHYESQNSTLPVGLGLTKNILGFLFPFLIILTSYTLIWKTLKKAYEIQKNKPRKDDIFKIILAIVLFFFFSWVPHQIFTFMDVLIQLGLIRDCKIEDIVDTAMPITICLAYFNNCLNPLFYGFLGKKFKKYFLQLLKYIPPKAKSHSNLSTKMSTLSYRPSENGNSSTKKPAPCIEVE
Experiment: Receptor binding assay: displacement of [125I](Sar1,Ile8)AngII from beef adrenal cortex microsomal membranes
Source text: Beef adrenals are obtained from a local slaughter house (Maxwell-Cohen). [^125 I](Sar^1,-Ile^8)AngII, S.A. 2200 Ci/mmole, is purchased from Dupont (NEN®, Boston, Mass.). All unlabeled AngII analogs, dimethylsulfoxide (DMSO), nucleotides, bovine serum albumin (BSA) are purchased from Sigma Chemical Co., St. Louis, Mo. U.S.A.
Approximately sixteen (16) to twenty (20) beef adrenal glands are processed as follows: fresh adrenal glands received on crushed ice are cleaned of fatty tissues and the tough membranes encapsulating the glands are removed and discarded. The brownish tissue forming the adrenal cortex is scraped off and finely minced with scissors before homogenization. Care is taken to avoid contamination with medullary tissue during dissection. The scraped cortices are suspended in twenty volumes of an ice-cold buffer medium consisting of 10 mM Tris.HCl (pH 7.4 at 22° C.) and containing 1.0 mM EDTA and 0.2M sucrose. Unless otherwise indicated, all subsequent operation are done at 4° C. […] The homogenate is centrifuged first at low speed (3,000×g) for 10 min. […] A 100 ul aliquot is withdrawn and the protein content of the preparation is determined by the Lowry's method (Lowry, O. H., Rosebrough, N. F., Farr, A. L. and Randall, R. J., Protein measurement with Folin phenol reagent. J. Biol. Chem., […], 265-275, 1951). […]

CCCCc1nc2ccc(COc3ccccc3)cc2c(=O)n1Cc1ccc(-c2ccccc2-c2nnn[nH]2)cc1 [Example 36, 2-Butyl-6-(phenoxymethyl)-3-[[2'-(1H-tetrazol-5-yl) [1,1'-biphenyl]-4-yl]methyl]-4(3H)-quinazolinone]
IC50: 130 nM
